Measurements reported in patent publication US8952024B2, “Herbicidal pyrimidone derivatives” (E I du Pont de Nemours and Company, priority 2009, dated 2015).

Tests used:
Type in all cases: in vivo
[1] = system: field violet (Viola arvensis); assay: Test C plant response; settings: Postemergence, scale 0 to 100
Description: Seeds of plant species selected from bluegrass (annual bluegrass, Poa annua), blackgrass (Alopecurus myosuroides), canarygrass (Phalaris minor), chickweed (common chickweed, Stellaria media), galium (catchweed bedstraw, Galium aparine), bromegrass (downy bromegrass, Bromus tectorum), field poppy (Papaver rhoeas), field violet (Viola arvensis), green foxtail (Setaria viridis), deadnettle (henbit deadnettle, Lamium amplexicaule), Italian ryegrass (Lolium multiflorum), kochia (Kochia scoparia), lambsquarters (Chenopodium album), oilseed rape (Brassica napus), pigweed (Amaranthus retroflexus), Russian thistle (Salsola iberica), spring barley (Hordeum vulgare), spring wheat (Triticum aestivum), buckwheat (wild buckwheat, Polygonum convolvulus), wild mustard (Sinapis arvensis), wild oat (Avena fatua), wild radish (Raphanus raphanistrum), windgrass (Apera spica-venti), winter barley (Hordeum vulgare), and winter wheat (Triticum aestivum) were planted and treated postemergence with test chemicals formulated in a non-phytotoxic solvent mixture which included a surfactant. Plants ranged in height from 2 to 18 cm (1- to 4-leaf stage).
Treated plants and controls were maintained in a controlled growth environment for 14 days after which time all test plants were visually evaluated and compared to controls. Plant response ratings, summarized in Table C, are based on a scale of 0 to 100 where 0 is no effect and 100 is complete control. A dash (-) response means no test result.

[2] = system: water seeded rice seedlings (Oryza sativa cv. ‘Japonica—M202’); assay: Test E flooded paddy rice and weeds; settings: applied to paddy water, 21 days, scale 0 to 100
Method in brief: (§1)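 Visual ratings (0 = no effect, 100 = complete control), taken 21 days after treatment against untreated pots. Treatment was by application to paddy water kept 3 cm above the soil, at the 2.0 to 2.5-leaf stage. Grown under 30/27° C, 16-hour photoperiod.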

[3] = system: ricefield bulrush (Scirpus mucronatus); assay: Test E flooded paddy rice and weeds; settings: applied to paddy water, 21 days, scale 0 to 100
Method in brief: as §1

[4] = system: early watergrass (Echinochloa oryzoides); assay: Test E flooded paddy rice and weeds; settings: applied to paddy water, 21 days, scale 0 to 100
Method in brief: as §1

[5] = system: transplanted rice seedlings (Oryza sativa cv. ‘Japonica—M202’); assay: Test E flooded paddy rice and weeds; settings: applied to paddy water, 21 days, scale 0 to 100
Method in brief: as §1

[6] = system: junglerice (Echinochloa colona); assay: Test E flooded paddy rice and weeds; settings: applied to paddy water, 21 days, scale 0 to 100
Method in brief: as §1

[7] = system: redstem (purple redstem, Ammannia coccinea); assay: Test E flooded paddy rice and weeds; settings: applied to paddy water, 21 days, scale 0 to 100
Method in brief: as §1

[8] = system: barnyardgrass (Echinochloa crus-galli); assay: Test E flooded paddy rice and weeds; settings: applied to paddy water, 21 days
Method in brief: as §1

[9] = system: ducksalad (Heteranthera limosa); assay: Test E flooded paddy rice and weeds; settings: applied to paddy water, 21 days, scale 0 to 100
Method in brief: as §1

| Compound | Plant response rating: Field Violet ([1]; 31 g ai/ha) | Plant response rating: Field Violet ([1]; 16 g ai/ha) | Plant response rating: Field Violet ([1]; 62 g ai/ha) | Plant response rating: Field Violet ([1]; 125 g ai/ha) | Plant response rating, Rice, Water Seeded, Flood ([2]; 125 g ai/ha) | Plant response rating, Rice, Water Seeded, Flood ([2]; 250 g ai/ha) | Plant response rating, Bulrush, Ricefield, Flood ([3]; 125 g ai/ha) | Plant response rating, Bulrush, Ricefield, Flood ([3]; 250 g ai/ha) | Plant response rating, Watergrass, Early, Flood ([4]; 125 g ai/ha) | Plant response rating, Watergrass, Early, Flood ([4]; 250 g ai/ha) | Plant response rating, Rice, Transplanted, Flood ([5]; 125 g ai/ha) | Plant response rating, Rice, Transplanted, Flood ([5]; 250 g ai/ha) | Plant response rating, Junglerice, Flood ([6]; 125 g ai/ha) | Plant response rating, Junglerice, Flood ([6]; 250 g ai/ha) | Plant response rating, Redstem, Flood ([7]; 125 g ai/ha) | Plant response rating, Redstem, Flood ([7]; 250 g ai/ha) | Plant response rating, Barnyardgrass, Flood ([8]; 125 g ai/ha, scale 0 to 100) | Plant response rating, Barnyardgrass, Flood ([8]; 250 g ai/ha, scale 0 to 100) | Plant response rating, Ducksalad, Flood ([9]; 125 g ai/ha) | Plant response rating, Ducksalad, Flood ([9]; 250 g ai/ha) | also measured |
| --- | --- | --- | --- | --- | --- | --- | --- | --- | --- | --- | --- | --- | --- | --- | --- | --- | --- | --- | --- | --- | --- |
| 3-cyclohexyl-5-[(2-hydroxy-6-oxo-1-cyclohexen-1-yl)carbonyl]-2-phenyl-4(3H)-pyrimidinone [Compound 128] | 0 | 0 | 35 | 35 |  |  |  |  |  |  |  |  |  |  |  |  |  |  |  |  |  |
| COc1ccc(-n2c(-c3ccccc3)ncc(C(=O)C3=C(O)CCCC3=O)c2=O)cc1 [Compound 4, 5-[(2-hydroxy-6-oxo-cyclohexen-1-yl)carbonyl]-3-(4-methoxyphenyl)-2-phenyl-4(3H)-pyrimidinone] | 40 |  |  | 60 | 10 | 20 | 40 | 80 | 0 | 60 | 0 | 0 | 0 | 25 | 80 | 80 | 0 | 60 | 90 | 100 | Plant response rating, Rice, Water Seeded, Flood ([2]; 500 g ai/ha): 50; Plant response rating, Bulrush, Ricefield, Flood ([3]; 500 g ai/ha): 80; Plant response rating, Watergrass, Early, Flood ([4]; 500 g ai/ha): 65; Plant response rating, Rice, Transplanted, Flood ([5]; 500 g ai/ha): 15; Plant response rating, Junglerice, Flood ([6]; 500 g ai/ha): 50; Plant response rating, Redstem, Flood ([7]; 500 g ai/ha): 85; Plant response rating, Barnyardgrass, Flood ([8]; 500 g ai/ha, scale 0 to 100 (0 no effect, 100 complete control)): 60; Plant response rating, Ducksalad, Flood ([9]; 500 g ai/ha): 100 |
| Cc1ccc(-n2c(-c3ccccc3)ncc(C(=O)C3=C(O)CCCC3=O)c2=O)cc1 [Compound 8] | 65 | 10 | 65 | 65 |  |  |  |  |  |  |  |  |  |  |  |  |  |  |  |  |  |
| Cc1ccccc1-n1c(-c2ccccc2)ncc(C(=O)C2=C(O)CCCC2=O)c1=O [Compound 12] | 35 | 35 | 40 | 40 |  |  |  |  |  |  |  |  |  |  |  |  |  |  |  |  |  |
| Cc1ccc(-n2c(-c3ccccc3)ncc(C(=O)C3=C(O)CCCC3=O)c2=O)c(C)c1 [Compound 28] |  |  |  |  | 65 | 85 | 35 | 65 | 0 | 20 | 15 | 15 | 0 | 0 | 50 | 90 | 0 | 0 | 80 | 100 | Plant response rating, Rice, Water Seeded, Flood ([2]; 32 g ai/ha): 45; Plant response rating, Rice, Water Seeded, Flood ([2]; 64 g ai/ha): 60; Plant response rating, Bulrush, Ricefield, Flood ([3]; 32 g ai/ha): 20; Plant response rating, Bulrush, Ricefield, Flood ([3]; 64 g ai/ha): 30; Plant response rating, Watergrass, Early, Flood ([4]; 32 g ai/ha): 0; Plant response rating, Watergrass, Early, Flood ([4]; 64 g ai/ha): 0; Plant response rating, Rice, Transplanted, Flood ([5]; 32 g ai/ha): 0; Plant response rating, Rice, Transplanted, Flood ([5]; 64 g ai/ha): 15; Plant response rating, Junglerice, Flood ([6]; 32 g ai/ha): 0; Plant response rating, Junglerice, Flood ([6]; 64 g ai/ha): 0; Plant response rating, Redstem, Flood ([7]; 32 g ai/ha): 0; Plant response rating, Redstem, Flood ([7]; 64 g ai/ha): 40; Plant response rating, Barnyardgrass, Flood ([8]; 32 g ai/ha, scale 0 to 100): 0; Plant response rating, Barnyardgrass, Flood ([8]; 64 g ai/ha, scale 0 to 100): 0; Plant response rating, Ducksalad, Flood ([9]; 32 g ai/ha): 0; Plant response rating, Ducksalad, Flood ([9]; 64 g ai/ha): 0 |
